Source: ChEMBL document CHEMBL1146108, “Discovery of novel and selective tertiary alcohol containing inhibitors of the norepinephrine transporter” (Bioorg Med Chem Lett, 2006)
pKi: −log10 of the molar value. Values joined by “and” are separate entries in the source; they are usually repeats but may differ in a detail not shown here. Equal entries are not always repeated.

Columns and labels:
[1] = biological target: T1, Sodium-dependent noradrenaline transporter (Homo sapiens, UniProt P23975); assay: Binding affinity to NET
[2] = biological target: Sodium-dependent serotonin transporter (Homo sapiens) (UniProt P31645); assay: Displacement of [3H]5-HT from SERT at 100 nM
[3] = biological target: Sodium-dependent dopamine transporter (Homo sapiens) (UniProt Q01959); assay: Displacement of […] from DAT at 1000 nM
Liver microsomes [4] = assay: Stability in rat liver microsome; type: ADME
Canis familiaris = organism: Canis familiaris; assay: Stability in dog liver microsome; type: ADME, Canis lupus familiaris
Liver microsomes [5] = assay: Stability in human liver microsome; type: ADME
Rattus norvegicus [6] = assay: Ability to block alpha-MMT-induced depletion of cortical norepinephrine concentration in Sprague-Dawley rat at 3 mg/kg, sc; type: functional; settings: route subcutaneous
Rattus norvegicus [7] = assay: Ability to block alpha-MMT-induced depletion of cortical norepinephrine concentration in orally dosed Sprague-Dawley rat; type: functional; settings: po
[8] = biological target: T1, Sodium-dependent noradrenaline transporter; assay: Binding affinity to NET at 100 nM

T1 sequence (P23975 whole entry): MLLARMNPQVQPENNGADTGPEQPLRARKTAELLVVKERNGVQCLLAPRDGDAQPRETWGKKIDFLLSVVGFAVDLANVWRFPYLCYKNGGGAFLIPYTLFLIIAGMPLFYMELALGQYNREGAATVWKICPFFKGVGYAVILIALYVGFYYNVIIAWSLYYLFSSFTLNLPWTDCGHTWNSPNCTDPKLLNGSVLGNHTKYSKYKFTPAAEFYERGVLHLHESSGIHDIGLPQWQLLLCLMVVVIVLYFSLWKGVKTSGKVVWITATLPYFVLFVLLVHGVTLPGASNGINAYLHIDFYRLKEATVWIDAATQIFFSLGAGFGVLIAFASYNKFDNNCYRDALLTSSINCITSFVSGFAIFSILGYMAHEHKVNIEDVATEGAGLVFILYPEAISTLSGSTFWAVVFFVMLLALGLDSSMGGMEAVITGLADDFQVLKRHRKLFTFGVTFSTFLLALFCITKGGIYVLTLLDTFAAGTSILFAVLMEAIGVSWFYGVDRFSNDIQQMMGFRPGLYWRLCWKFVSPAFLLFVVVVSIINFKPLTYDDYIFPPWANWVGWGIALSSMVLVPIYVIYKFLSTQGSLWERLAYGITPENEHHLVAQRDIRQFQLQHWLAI
Chain of Sodium-dependent serotonin transporter (Homo sapiens) (P31645 whole entry, looked up): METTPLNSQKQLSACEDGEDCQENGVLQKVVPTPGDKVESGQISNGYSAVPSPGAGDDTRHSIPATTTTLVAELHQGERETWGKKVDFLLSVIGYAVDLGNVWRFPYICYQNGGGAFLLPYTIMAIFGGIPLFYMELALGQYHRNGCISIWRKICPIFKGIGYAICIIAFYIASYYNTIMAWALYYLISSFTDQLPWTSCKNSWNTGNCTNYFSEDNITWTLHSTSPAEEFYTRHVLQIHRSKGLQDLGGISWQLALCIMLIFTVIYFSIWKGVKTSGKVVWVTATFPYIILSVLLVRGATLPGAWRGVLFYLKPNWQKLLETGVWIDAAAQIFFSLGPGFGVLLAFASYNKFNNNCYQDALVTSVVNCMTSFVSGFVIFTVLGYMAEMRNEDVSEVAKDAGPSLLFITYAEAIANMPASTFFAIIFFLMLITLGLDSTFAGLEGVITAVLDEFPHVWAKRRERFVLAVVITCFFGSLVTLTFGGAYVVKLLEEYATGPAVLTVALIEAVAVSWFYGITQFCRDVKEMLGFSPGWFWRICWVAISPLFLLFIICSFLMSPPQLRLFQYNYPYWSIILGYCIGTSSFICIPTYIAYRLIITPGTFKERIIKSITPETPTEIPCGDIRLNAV
Chain of Sodium-dependent dopamine transporter (Homo sapiens) (Q01959 whole entry): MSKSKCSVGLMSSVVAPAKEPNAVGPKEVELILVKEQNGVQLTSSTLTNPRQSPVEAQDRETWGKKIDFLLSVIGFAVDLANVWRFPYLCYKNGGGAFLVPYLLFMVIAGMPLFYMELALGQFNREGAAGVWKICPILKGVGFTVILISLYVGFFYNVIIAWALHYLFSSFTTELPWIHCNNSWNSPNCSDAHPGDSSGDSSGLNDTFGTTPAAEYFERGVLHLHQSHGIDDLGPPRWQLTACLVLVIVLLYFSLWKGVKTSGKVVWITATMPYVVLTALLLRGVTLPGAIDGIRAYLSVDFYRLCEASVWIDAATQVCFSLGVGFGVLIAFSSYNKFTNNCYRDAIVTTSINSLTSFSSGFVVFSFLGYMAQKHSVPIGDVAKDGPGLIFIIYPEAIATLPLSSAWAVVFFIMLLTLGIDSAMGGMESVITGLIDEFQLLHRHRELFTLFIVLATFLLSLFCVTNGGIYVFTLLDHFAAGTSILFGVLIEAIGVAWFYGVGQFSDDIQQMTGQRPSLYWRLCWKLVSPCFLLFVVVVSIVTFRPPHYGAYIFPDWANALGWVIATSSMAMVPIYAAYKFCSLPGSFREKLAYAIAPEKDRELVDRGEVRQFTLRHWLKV

pKi [1]	inhibition [2]	inhibition [3]	Compound	also measured
7.25	–	–	COc1ccccc1C[C@@](O)(c1ccccc1)[C@@H]1CNCCO1 [listing 1 of 3 here]	–
–	0.3%	4.6%	COc1ccccc1C[C@@](O)(c1ccccc1)[C@@H]1CNCCO1 (single isomer, unassigned; isomer 2) [listing 1 of 2 here]	–
8.49	–	–	COc1ccccc1C[C@@](O)(c1ccccc1)[C@@H]1CNCCO1.Cl.Cl.Cl	Stability (Liver microsomes [4]): 0%; Stability (Canis familiaris): 60%; Stability (Liver microsomes [5]): 98%; Activity (Rattus norvegicus [6]): 70%; ED50 (Rattus norvegicus [7]): 18 mg/kg
7.92	13%	24.1%	O[C@](Cc1ccccc1Br)(c1ccccc1)[C@@H]1CNCCO1	–
8.28	2.4%	3.8%	CCOc1ccccc1C[C@@](O)(c1ccccc1)[C@@H]1CNCCO1	–
–	5% and 5.5% and 1.4%	4.7% and 3.8% and 3.7%	COc1ccccc1C[C@@](O)(c1ccccc1)[C@@H]1CNCCO1 [listing 2 of 3 here]	–
6.79	–	–	COc1ccccc1C[C@@](O)(c1ccccc1)[C@@H]1CNCCO1 [listing 3 of 3 here]	–
7.26	14.8%	6.2%	O[C@](Cc1ccccc1SC(F)(F)F)(c1ccccc1)[C@@H]1CNCCO1	–
–	4.3%	6.2%	COc1ccc(C[C@@](O)(c2ccccc2)[C@@H]2CNCCO2)cc1	inhibition [8]: 25.2%
8.11	2.7%	5.1%	CC(C)Oc1ccccc1C[C@@](O)(c1ccccc1)[C@@H]1CNCCO1	–
7.52	4.6%	20.8%	O[C@](Cc1ccccc1Cl)(c1ccccc1)[C@@H]1CNCCO1	–
–	2.8%	4.3%	COc1cccc(C[C@@](O)(c2ccccc2)[C@@H]2CNCCO2)c1	inhibition [8]: 19.8%
6.81	–	–	COc1ccccc1C[C@@](O)(c1ccccc1)[C@@H]1CNCCO1 (single isomer, unassigned; isomer 2) [listing 2 of 2 here]	–
8.43	3%	2.9%	O[C@](Cc1ccccc1-c1ccccc1)(c1ccccc1)[C@@H]1CNCCO1 (single isomer, unassigned)	–

Compound	pKi [1]	inhibition [2]	inhibition [3]	also measured
O[C@](Cc1ccccc1)(c1ccccc1)[C@@H]1CNCCO1	6.83	4.2%	5.5%	–
